In brackets after ≈: the same amount, converted by molar mass. Where two headings read alike, the source gives them in different places. Residues, ends and D or L forms follow the SMILES beside them. No end group written: not given here.
Tests used:
[1] = test system: Pseudomonas aeruginosa; type: cell-based
Experimental: (§1) The antibacterial activities of the different peptides were determined by continuous monitoring of bacterial growth with a Bioscreen C microbiology reader (Labsystems Oy, Helsinki, Finland). The test was performed in 100-well flat-bottomed honeycomb plates, in which 50 μl of test fractions were incubated with 50 μl of a suspension of an actively growing culture of bacteria diluted in Mueller Hinton medium to a starting concentration of 3×10^4 cells per ml. […] [NT] 13032) and S. aureus (ATCC 9144), were chosen as test bacteria. […] Polymyxin B (Sigma, St.

[2] = test system: Candida albicans (ATCC 10231); settings: ATCC 10231, 48 h
Experimental: (§2) The various derivates of P17 (brominated and non-brominated) were tested for their ability to inhibit fungal growth of the yeast strains Saccaharomyces cerevisiae sp, Candida albicans (ATCC 10231) and Rodotorula sp., and the filamentous strains Botrytis cinerea 101, Penicillium rogveforti, and Fusarium sp. All strains, except C. albicans, were a gift from Prof. A. Tronsmo (The Norwegian University of Life Sciences, Ås, Norway). The fungi were cultivated on potato dextrose agar, supplemented with 2% glucose, at room temperature. Before antifungal testing, the fungi were dissolved in potato dextrose broth (Difco) at half-strength. Cell concentration was determined and adjusted after counting in a Bürker chamber. The filamentous fungi were filtered through a piece of cotton before counting. An aliquot of 50 μl of fungal spores (final concentration 2×10^5 spores per ml) were inoculated in microtiter plates (96 wells) along with 50 μl peptide solution. Peptides, dissolved in distilled water, were tested at final concentrations (two-fold dilutions) ranging from 50 μM to 0.1 μM. Cultures were grown in the dark (without shaking) and with a moist chamber at 25° C. (37° C. for C. albicans). Growth inhibition was determined microscopically after 48 h of incubation. MIC was determined as the lowest concentration of peptide resulting in 50% inhibition of visible growth.

[3] = test system: Botrytis cinerea 101; settings: 48 h
Experimental: as §2

[4] = test system: Saccharomyces cerevisiae; settings: 48 h
Experimental: as §2

[5] = test system: E. coli (ATCC 25922); type: cell-based, Escherichia coli
Experimental: as §1

[6] = test system: C. glutamicum (ATCC 13032); type: cell-based, Corynebacterium glutamicum
Experimental: as §1

[7] = test system: S. aureus (ATCC 9144); type: cell-based, Staphylococcus aureus; settings: ATCC 9144
Experimental: as §1

[8] = test system: human colorectal adenocarcinoma cell line HT-29; type: cell-based; settings: 24 hours, maximum 200 μg/ml
Experimental: (§3) The cytotoxic effects of the peptides on different human tumour cells were measured using the MTT colorimetric assay (Mosmann, 1983). […] Dissolved MIT is converted to an insoluble purple formazan by cleavage of the tetrazolium ring by dehydrogenase enzymes. This water insoluble formazan can be solubilized using isopropanol or other solvents and the dissolved material is measured spectrophotometrically. The absorbance was measured as a function of concentration of converted dye. The conversion of the soluble dye to the insoluble purple formazan is utilized in assays for measurement of cell proliferation. […] We used this assay to measure the degree of cell death caused by the peptides. MCF-7 was maintained in EMEM, A2058 in DMEM and […]-29 in RPMI-1640 medium supplemented with 10% heat inactivated […] and 1% L-glutamine-L-alanine in a humidified atmosphere of 5% CO2 at 37° C. The human embryonic fibroblast cell line, MRC-5 (which is normal fibroblasts), was cultured as a monolayer in MEM medium, under the same conditions as described for the tumour cell lines. Cells to be used in the assay were grown to a minimum of 75% confluency, trypsinated and split to single cell suspension, counted and centrifuged at 1500 rpm for 10 min. The cell pellet was resuspended to a concentration of 2×10^5 cells/ml (HT-29) or 1×10^5 (MRC-5, MCF7 and A2058) in DMEM without FBS and L-glutamine-L-alanine (assay-medium). All cell lines were routinely tested for mycoplasma infection using a PCR-based mycoplasma detection kit (MycoSensor PCR Assay Kit, Stratagene), following the supplier's instructions. All cell lines were mycoplasma free. The cytotoxicity was measured using the MTT method (Mosmann, 1983), with minor modifications. Different human tumour cells (1-2×10^5) were applied in 96-well culture plates in a volume of 100 μl DMEM medium and incubated at 37° C. for 24 hours. The medium was removed and the cells were treated with 100 μl of peptide solution (concentrations ranging from 0 to 200 μg/ml), diluted in a) RPMI-1640 medium supplemented with 5% heat inactivated FBS, or b) RPMI-1640 medium without FBS. The plates were incubated at 37° C. for 24 hours. Cells treated with Triton X-100 (1%) was used as positive control (100% killing) whereas cells plus medium only were used as negative control. […] A volume of 70 μl of the supernatant was then removed and […] (0.04 M HCl in isopropanol) added to each well. The plate was placed on a shaker for 1 hour at room temperature and read spectrophotometrically at 590 nm in a microtiter plate reader (DTX880 Multimode Detector, Beckman Coulter).

[9] = test system: human embryonic lung fibroblast cell line MRC-5; type: cell-based; settings: normal fibroblasts, 24 hours, maximum 200 μg/ml
Experimental: as §3

[10] = test system: human skin malignant melanoma cell line A2058; type: cell-based; settings: 24 hours, maximum 200 μg/ml
Experimental: as §3

[11] = test system: human breast malignant carcinoma cell line MCF-7; type: cell-based; settings: 24 hours, maximum 200 μg/ml
Experimental: as §3

[12] = test system: Salmonella enterica serovar typhimurium (ATCC 14028); assay: Bacterial cell viability, lux luminescence and OD600, with or without LPS; type: cell-based; settings: co-incubation with 2.5 μM Aeromonas salmonicida LPS
Source text: To evaluate the effect of antimicrobial peptides on the viability of bacteria in a fast and reliable manner we used the lux CDABE operon from Photorhabdus luminescens as a reporter system in gram negative test bacteria and the modified luxABCDE operon in S. aureus (Vesterlund et al. 2004). Bacterial bioluminescence is directly dependent on metabolic activity, since reduction equivalents are needed to drive light emission. Any form of interruption of bacterial cell integrity or metabolism will therefore be detected as a reduction in light emission.
For the assay we used S. aureus (RN4220), E. coli K-12 and Salmonella enterica serovar typhimurium (ATCC 14028) transformed with the respective lux-operon containing plasmids (Vesterlund et al. 2004).
For each experiment a fresh colony was picked from Luria-Bertani plates supplemented with 10 μg/ml of erythromycin in case of S. aureus and with 100 μg/ml of ampicillin in case of E. coli and S. enterica serovar Typhimurium. Each colony was suspended in 5 ml of Müller-Hinton medium with appropriate antibiotics. The culture was incubated over night at 37° C. in a shaking incubator. The next morning 0.5 ml of this culture was transferred to 30 ml fresh MH medium in an Erlenmeyer-flask supplemented with the respective antibiotic. The flask was incubated (200 rpm shaking; 37° C.) until an OD600 of 0.5-0.8 was reached. The culture was then diluted to an OD600 of about 0.02-0.03 before transfer to the 96 well opaque plates with optical bottom (Packard ViewPlate) used for the assay.
The synthesized peptides were dissolved in water and aliquots frozen at −18° C. until use. Twofold dilutions of test peptides (final concentrations ranging from 0.31 to 80 μM) were directly prepared in 96 well microtiter plates in a volume of 10 μl in water. 90 μl is of indicator bacteria in MH medium were added directly to the prepared and pre-warmed (30 minutes at 37° C.) plate before starting the measurement in a Victor multiplate reader (Perkin Elmer) at 37° C. Both OD600 and luminescence in counts per second (cps) were followed over 5 hours in measuring intervals of 5 minutes. The plates where shaken before each measurement (20 sec.; 5 mm orbital shaking; 10 sec waiting). The growth curves and light emission curves were drawn and evaluated to determine the MIC for each indicator strain. The MIC was defined as the concentration of test compound causing more than 50% reduction in bioluminescence (cps) or optical density (OD600) after 5 hours, compared to the growth control. Cecropin P1 was used as positive control. The results (table 14a-b) confirm the results obtained in example 2, showing a pronounced antibacterial effect of the longest peptide fragments. […] The partial peptides P17 HC (1-20), both bromated and unbromated, inhibit growth only in higher concentrations.
A second plate with an otherwise similar setup (as described for the luminescence assay in example 3) was prepared, but with addition of Aeromonas salmonicida LPS to the peptide dilutions before pre-warming. The LPS end concentration in each well was approximately 2.5 μM.

[13] = RPMI-1640 medium containing 5% FBS

Molecule	Minimal inhibitory concentration, P. aeruginosa [1]	Minimal inhibitory concentration (MIC), Candida albicans [2]	Minimal inhibitory concentration (MIC), Botrytis cinerea [3]	Minimal inhibitory concentration (MIC), Saccharomyces cerevisiae [4]	Minimal inhibitory concentration, E. coli [5]	Minimal inhibitory concentration, C. glutamicum [6]	Minimal inhibitory concentration, S. aureus [7]	Antitumoral activity IC50, HT-29 [8, 13]	Antitumoral activity IC50, HT-29 ([8]; serum-free RPMI-1640 medium)	IC50, MRC-5 [9, 13]	IC50 ([9]; serum-free RPMI-1640 medium, read-out: IC50, MRC-5)	Antitumoral activity IC50, A2058 [10, 13]	IC50 ([10]; serum-free RPMI-1640 medium, read-out: Antitumoral activity IC50, A2058)	Antitumoral activity IC50, MCF-7 [11, 13]	Antitumoral activity IC50, MCF-7 ([11]; serum-free RPMI-1640 medium)	MIC, more than 50% reduction in optical density, S. enterica, P + LPS ([12]; OD600, 5 hours)	MIC, more than 50% reduction in luminescence, S. enterica, P + LPS ([12]; luminescence (cps), 5 hours)
GQRGCSALGF [P17 HC (21-30)]	>100 µM	>100 µM	>100 µM	>100 µM	>100 µM	>100 µM	>100 µM										
NCCCC[C@H](NC(=O)[C@H](CCCCN)NC(=O)[C@H](Cc1ccccc1)NC(=O)C(Cc1c[nH]c2ccc(Br)cc12)NC(=O)CN)C(=O)O (stereo partly shown) [P17 HC-Br (1-5)] (HELM PEPTIDE1{G.[O=C(C(Cc1c[nH]c2ccc(Br)cc12)N[*:1])[*:2]].F.K.K}$$$$V2.0; N-terminus and C-terminus assumed)	>50 µM	>100 µM	>100 µM	>100 µM	25 µM (≈ 18.6 µg/mL)		>100 µM										
NC(Cc1c[nH]c2cc(Br)ccc12)C(=O)O [6-D/L-Br-Trp, 6-Bromo-D/L-tryptophan, reference compound]								* (The symbol “*” denotes 30-50% killing at the highest concentration tested.)	* (The symbol “*” denotes 30-50% killing at the highest concentration tested.)	* (The symbol “*” denotes 30-50% killing at the highest concentration tested.)	584 µM	* (The symbol “*” denotes 30-50% killing at the highest concentration tested.)	655 µM	* (The symbol “*” denotes 30-50% killing at the highest concentration tested.)	* (The symbol “*” denotes 30-50% killing at the highest concentration tested.)		
GWFKKTFHKV [P17 HC (1-10)]	100 µM	25 µM	100 µM	25 µM	100 µM	12.5 µM	>100 µM										
CC(C)[C@H](NC(=O)[C@H](CCCCN)NC(=O)[C@H](Cc1c[nH]cn1)NC(=O)[C@H](Cc1ccccc1)NC(=O)[C@@H](NC(=O)[C@H](CCCCN)NC(=O)[C@H](CCCCN)NC(=O)[C@H](Cc1ccccc1)NC(=O)C(Cc1c[nH]c2ccc(Br)cc12)NC(=O)CN)[C@@H](C)O)C(=O)O (stereo partly shown) [P17 HC-Br (1-10)] (HELM PEPTIDE1{G.[O=C(C(Cc1c[nH]c2ccc(Br)cc12)N[*:1])[*:2]].F.K.K.T.F.H.K.V}$$$$V2.0; N-terminus and C-terminus assumed)	>50 µM	25 µM (≈ 33.9 µg/mL)	50 µM (≈ 67.8 µg/mL)	25 µM (≈ 33.9 µg/mL)	25 µM (≈ 33.9 µg/mL)		>100 µM									40 µM	20 µM
GWFKK [P17 HC (1-5)]	>100 µM	>100 µM	>100 µM	>100 µM	>100 µM	>100 µM	>100 µM										

From US20100093642A1, “NOVEL POLYPEPTIDES” (priority 2006, published 2010)
